The source made the active and inactive calls. The rule behind the calls is not given here.

What all share (type): functional, cell-based
Assay [1] relates to ONS. Put plainly: Effect on human ONS cells assessed as increase in EEA1-marked early endosomes at 5 uM after 24 hrs by fluorescence microscopic analysis.
Assay [2] has as its system ONS. Kind of assay: Effect on human ONS cells assessed as increase in mitochondrial intensity at 5 uM after 24 hrs by fluorescence microscopic analysis.
For assay [3], the system named is ONS. Put plainly: Effect on human ONS cells assessed as increase in LC3b intensity at 5 uM after 24 hrs by fluorescence microscopic analysis.
In assay [4] the test system is ONS. Kind of assay: Effect on human ONS cells assessed as decrease in EEA1-marked early endosomes at 5 uM after 24 hrs by fluorescence microscopic analysis.
The subject of assay [5] is ONS. Kind of assay: Effect on human ONS cells assessed as increase in alpha-tubulin intensity at 5 uM after 24 hrs by fluorescence microscopic analysis.
For assay [6], the system named is ONS. Kind of assay: Induction of phenotypical changes in human ONS cells at 5 uM after 24 hrs.
Assay [7] has as its system ONS. Put plainly: Effect on human ONS cells assessed as decrease in alpha-tubulin intensity at 5 uM after 24 hrs by fluorescence microscopic analysis.

In the case of `C[C@@]12CC[C@@H]3[C@](C)(CC[C@@H](O)[C@]3(C)C(=O)O)[C@H]1CC[C@H]([C@@]1(C)CC[C@@H](O)[C@@]3(C)COC(=O)C[C@@H]31)C(=O)C2`, in the assay on ONS [1], the outcome was Active.

For `C=C1C=C2C[C@]3(C)CC[C@@H]4[C@](C)(CC[C@@H](O)[C@]4(C)CO)[C@H]3CC[C@@H]2[C@@]2(C)CC[C@@H](O)C(C)(C)[C@H]12`, the outcome in the assay with ONS [2], in the assay with ONS [3], in the assay on ONS [4] and in the assay with ONS [5] was Active.

For `C[C@H]1CC(=O)[C@]23CCCN4CCC[C@]2(C4)C(=O)C[C@@H]3[C@H]1O`, the outcome in the assay with ONS [6] was Active.

Turning to `CC1(C)[C@H](O)CC[C@]2(C)[C@H]3CC[C@H]4[C@@](C)(CC[C@@H]5[C@]4(C)CC[C@@H](O)[C@]5(C)C(=O)O)C[C@H]3C(=O)C[C@@H]12`, the result in the assay on ONS [2], in the assay with ONS [3], with ONS [4] and in the assay with ONS [5] was Active.

For `CC1(C)[C@H](O)CC[C@]2(C)[C@H]3CC[C@H]4[C@@](C)(CC[C@@H]5[C@]4(C)CC[C@@H](O)[C@]5(C)CO)CC3=CC(=O)[C@@]12C`, in the assay on ONS [1], the outcome was Active.

As to `CC1(C)[C@H](O)CC[C@]2(C)[C@H]3CC[C@H]4[C@@](C)(CC[C@@H]5[C@]4(C)CC[C@@H](O)[C@]5(C)C(=O)O)C[C@@H]3C(=O)C[C@@H]12`, the outcome with ONS [2], in the assay with ONS [7], in the assay on ONS [3], in the assay on ONS [6] and with ONS [4] was Active.

Regarding `CC1(C)[C@@H](OC(=O)CCc2ccc(O)c(O)c2)CC[C@@]2(C)[C@H]1CC[C@@]1(C)CC3CC[C@@H]4[C@](C)(CC[C@@H](O)[C@]4(C)CO)[C@H]3CC[C@@H]12` (stereo not given in full), the outcome with ONS [2], in the assay with ONS [3], in the assay on ONS [4] and with ONS [5] was Active.

`CC1(C)[C@@H](O)CC[C@]2(C)[C@H]3CC[C@H]4[C@@](C)(CC[C@@H]5[C@]4(C)CC[C@H](OC(=O)CCc4ccc(O)c(O)c4)[C@]5(C)CO)CC3CC[C@@H]12` (stereo not given in full): the result in the assay with ONS [1] was Active.

In the case of `C[C@@]12CC[C@@H]3[C@](C)(CC[C@@H](O)[C@]3(C)C(=O)O)[C@H]1CC[C@H]1[C@H](C2)C(=O)C[C@H]2[C@](C)(CO)[C@@H](O)CC[C@@]21C`, the result in the assay on ONS [1] was Active.

For `C=C1C=C2C[C@]3(C)CC[C@@H]4[C@](C)(CC[C@@H](O)[C@]4(C)CO)[C@H]3CC[C@@H]2[C@@]2(C)CC[C@@H](O)[C@](C)(CO)[C@H]12`, the result with ONS [1] was Active.

In the case of `C=C1C=C2C[C@]3(C)CC[C@H]4C(C)(C)[C@H](O)CC[C@]4(C)[C@H]3CC[C@@H]2[C@@]2(C)CC[C@@H](O)C(C)(C)[C@H]12`, the outcome with ONS [2], with ONS [3], with ONS [4] and in the assay with ONS [5] was Active.

On to `C=C1C=C2C[C@]3(C)CC[C@H]4C(C)(C)[C@@H](O)CC[C@]4(C)[C@H]3CC[C@@H]2[C@@]2(C)CC[C@@H](O)[C@](C)(CO)[C@H]12`, for which the result in the assay with ONS [2], in the assay on ONS [3], in the assay with ONS [6], with ONS [4] and with ONS [5] was Active.

Consider `C=C1C=C2C[C@]3(C)CC[C@@H]4[C@](C)(CC[C@@H](O)[C@]4(C)CO)[C@H]3CC[C@@H]2[C@@]2(C)CC[C@@H](O)[C@@](C)(CO)[C@]12C`, for which the outcome in the assay with ONS [1] was Active.

Take `C=C1C=C2C[C@]3(C)CC[C@@H]4[C@](C)(CC[C@@H](O)[C@]4(C)C(=O)O)[C@H]3CC[C@@H]2[C@@]2(C)CC[C@@H](O)C(C)(C)[C@H]12`: the outcome in the assay with ONS [2], in the assay on ONS [3], in the assay on ONS [4] and in the assay with ONS [5] was Active.

Take `CC1(C)[C@@H](O)CC[C@]2(C)[C@H]3CC[C@H]4[C@@](C)(CC[C@@H]5[C@]4(C)CC[C@H](O)[C@]5(C)COC(=O)CCc4ccc(O)c(O)c4)CC3=CC[C@@H]12`: the outcome in the assay with ONS [2], with ONS [3], in the assay on ONS [4] and with ONS [5] was Active.

As for `CC1(C)[C@@H](OC(=O)CCc2ccc(O)c(O)c2)CC[C@@]2(C)[C@H]1CC[C@@]1(C)CC3CC[C@H]4C(C)(C)[C@@H](O)CC[C@]4(C)[C@H]3CC[C@@H]12` (stereo not given in full), the result in the assay with ONS [2], with ONS [3], in the assay on ONS [4] and in the assay on ONS [5] was Active.

Values taken from ChEMBL document CHEMBL5120767, “Phlegmacaritones A and B, a Pair of Serratane-Related Triterpenoid Epimers with an Unprecedented Carbon Skeleton from Phlegmariurus carinatus” (J Nat Prod, 2022).
